Tests used:
Histone deacetylase 1 = Histone deacetylase 1 (Homo sapiens, UniProt Q13547); test: Inhibition of human recombinant HDAC1 incubated for 90 mins using fluorogenic substrate ZMAL (Z-Lys(Ac)-AMC) by fluorescence based assay
[1] = target: T1, Protein deacetylase HDAC6 (Homo sapiens, UniProt Q9UBN7); test: Inhibition of human recombinant HDAC6 incubated for 90 mins using fluorogenic substrate ZMAL (Z-Lys(Ac)-AMC) by fluorescence based assay
T1 sequence (Q9UBN7 whole entry): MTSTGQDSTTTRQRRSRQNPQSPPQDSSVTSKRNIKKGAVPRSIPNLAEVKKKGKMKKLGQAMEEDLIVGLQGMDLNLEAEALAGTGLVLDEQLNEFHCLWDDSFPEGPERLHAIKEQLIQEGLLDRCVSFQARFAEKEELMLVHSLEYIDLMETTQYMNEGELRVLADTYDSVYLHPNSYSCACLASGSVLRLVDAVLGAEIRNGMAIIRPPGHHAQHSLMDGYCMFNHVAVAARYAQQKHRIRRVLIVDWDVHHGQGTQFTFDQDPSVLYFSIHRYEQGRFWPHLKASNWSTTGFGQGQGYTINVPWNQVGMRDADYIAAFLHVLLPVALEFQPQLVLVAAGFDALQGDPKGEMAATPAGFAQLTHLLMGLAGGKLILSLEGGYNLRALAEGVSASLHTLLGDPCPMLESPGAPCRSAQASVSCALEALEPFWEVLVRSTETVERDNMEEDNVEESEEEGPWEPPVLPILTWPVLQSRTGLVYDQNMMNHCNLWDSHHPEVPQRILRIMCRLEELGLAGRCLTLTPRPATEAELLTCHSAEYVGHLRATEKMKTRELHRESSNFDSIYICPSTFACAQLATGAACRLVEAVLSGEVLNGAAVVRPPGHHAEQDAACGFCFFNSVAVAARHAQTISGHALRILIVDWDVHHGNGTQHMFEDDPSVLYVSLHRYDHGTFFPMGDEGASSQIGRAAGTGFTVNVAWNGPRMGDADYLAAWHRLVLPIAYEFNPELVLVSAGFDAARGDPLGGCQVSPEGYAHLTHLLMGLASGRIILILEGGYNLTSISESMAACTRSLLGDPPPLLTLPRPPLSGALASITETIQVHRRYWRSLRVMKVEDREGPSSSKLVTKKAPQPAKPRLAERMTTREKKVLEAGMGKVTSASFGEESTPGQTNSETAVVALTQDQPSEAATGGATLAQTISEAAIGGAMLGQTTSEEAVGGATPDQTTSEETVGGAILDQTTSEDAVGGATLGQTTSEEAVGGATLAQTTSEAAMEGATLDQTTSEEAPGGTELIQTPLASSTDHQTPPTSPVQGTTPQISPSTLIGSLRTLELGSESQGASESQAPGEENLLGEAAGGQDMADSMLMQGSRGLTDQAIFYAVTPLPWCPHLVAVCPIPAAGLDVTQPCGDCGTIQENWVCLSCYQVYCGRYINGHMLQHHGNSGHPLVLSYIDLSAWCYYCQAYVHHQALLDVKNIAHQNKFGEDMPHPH

Homo sapiens = species: Homo sapiens; test: Selectivity index, ratio of IC50 for inhibition of human recombinant HDAC1 to IC50 for inhibition of human recombinant HDAC6

Chain of Histone deacetylase 1 (Q13547 whole entry): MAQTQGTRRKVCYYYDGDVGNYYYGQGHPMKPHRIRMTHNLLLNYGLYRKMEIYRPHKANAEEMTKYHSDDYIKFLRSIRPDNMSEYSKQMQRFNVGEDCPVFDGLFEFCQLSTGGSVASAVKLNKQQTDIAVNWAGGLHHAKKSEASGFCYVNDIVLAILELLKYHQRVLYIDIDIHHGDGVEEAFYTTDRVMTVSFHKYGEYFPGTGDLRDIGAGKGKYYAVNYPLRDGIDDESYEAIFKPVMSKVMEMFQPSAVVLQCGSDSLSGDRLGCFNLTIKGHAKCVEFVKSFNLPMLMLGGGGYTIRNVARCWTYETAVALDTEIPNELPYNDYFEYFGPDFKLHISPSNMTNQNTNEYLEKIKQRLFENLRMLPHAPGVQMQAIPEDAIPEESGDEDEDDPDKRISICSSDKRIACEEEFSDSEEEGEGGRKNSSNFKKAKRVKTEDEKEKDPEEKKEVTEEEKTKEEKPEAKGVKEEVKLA

Cc1cc(C)cc(C(=O)N(CC(=O)NC2CCCCC2)Cc2ccc(C(=O)NO)cc2)c1
IC50 (Histone deacetylase 1): 0.27 µM | IC50 [1]: 0.011 µM | Ratio IC50 (Homo sapiens): 25

CN(C)c1ccc(C(=O)N(CC(=O)NCc2ccccc2)Cc2ccc(C(=O)NO)cc2)cc1
IC50 (Histone deacetylase 1): 0.008 µM | IC50 [1]: 0.014 µM | Ratio IC50 (Homo sapiens): 0.6

CN(Cc1ccc(C(=O)NO)cc1F)CC12CC3CC(CC(C3)C1)C2
IC50 (Histone deacetylase 1): > 1000 µM
